Among the data in ChEMBL document CHEMBL1201862, “PubChem BioAssay data set” (2004) are AC50 and EC50 values, retold here.

Calls of active or inactive are those of the source.

One data set deals with T1, Cytochrome P450 1A2 (Homo sapiens, UniProt P05177).
T1 sequence (P05177 whole entry): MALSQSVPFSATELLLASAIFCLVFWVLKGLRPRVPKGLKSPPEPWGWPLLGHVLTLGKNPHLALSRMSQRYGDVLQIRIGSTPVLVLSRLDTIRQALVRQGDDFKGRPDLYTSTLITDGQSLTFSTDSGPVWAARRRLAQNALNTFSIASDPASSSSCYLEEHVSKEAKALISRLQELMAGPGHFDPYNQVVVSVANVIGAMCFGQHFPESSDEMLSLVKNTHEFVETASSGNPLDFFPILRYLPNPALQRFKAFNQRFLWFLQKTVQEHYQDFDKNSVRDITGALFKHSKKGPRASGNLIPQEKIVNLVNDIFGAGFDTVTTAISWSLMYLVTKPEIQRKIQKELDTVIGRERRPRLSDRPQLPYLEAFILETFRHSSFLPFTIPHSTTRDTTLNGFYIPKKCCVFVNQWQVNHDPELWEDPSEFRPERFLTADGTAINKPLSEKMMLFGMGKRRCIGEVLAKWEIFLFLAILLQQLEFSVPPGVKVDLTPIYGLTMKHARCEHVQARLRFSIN

The nature of data set [1]: inhibitors of intracellular T. cruzi replication, confirmation, NIH3T3 host cells, beta-gal luminescence (AID 2044).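 Note: intracellular parasites grown in NIH/3T3 mouse fibroblasts as host cells; luminescent beta-galactosidase reporter signal from transgenic T. cruzi replicating inside host cells; inhibitors lower the luminescence signal.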 The format is functional, cell-based.
Data set [2] can be described thus: cytotoxicity toward NIH3T3 fibroblasts, dose response, counter-screen, cell-based, ATP luminescence, mouse fibroblasts (AID 2010).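 Note: cells exposed to compound for about 90 hours before reading.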 The format is functional. Background: The purpose of a counterscreen is to sort out artefacts and off-target activity.
In data set [3] the target is T2, Heat shock factor protein 1 (Mus musculus, UniProt P38532).
T2 sequence (P38532 whole entry): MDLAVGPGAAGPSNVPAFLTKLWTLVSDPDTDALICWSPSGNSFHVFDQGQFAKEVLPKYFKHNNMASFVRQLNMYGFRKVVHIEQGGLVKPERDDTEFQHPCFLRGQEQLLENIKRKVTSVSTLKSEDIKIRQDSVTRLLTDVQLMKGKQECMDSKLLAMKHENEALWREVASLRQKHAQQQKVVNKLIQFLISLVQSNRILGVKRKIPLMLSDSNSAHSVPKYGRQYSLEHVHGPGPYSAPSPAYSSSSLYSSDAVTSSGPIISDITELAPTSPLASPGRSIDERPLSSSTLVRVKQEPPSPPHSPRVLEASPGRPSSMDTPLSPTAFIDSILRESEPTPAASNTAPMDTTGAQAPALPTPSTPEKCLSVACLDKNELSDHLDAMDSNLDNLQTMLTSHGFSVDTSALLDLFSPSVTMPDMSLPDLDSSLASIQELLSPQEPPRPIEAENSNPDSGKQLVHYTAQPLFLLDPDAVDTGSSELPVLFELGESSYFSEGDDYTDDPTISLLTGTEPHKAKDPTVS
As to the kind of experiment: inhibition of MG132-induced HSE-luciferase signal, confirmation, cell-based, NIH3T3, luminescence, dose retest (AID 2382).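 Note: NIH3T3 fibroblasts with HSF1-driven luciferase reporter stressed by proteasome inhibitor MG132; luminescence from HSF1-driven luciferase expression after 8 hours of MG132 stress.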 The format is functional.

In a further data set the target is Cytochrome P450 2C19 (Homo sapiens, UniProt P33261). Briefly: Cytochrome panel assay with activity outcomes. Panel member name: p450-cyp2c19 Compounds with AC50 equal or less than 10 uM are considered active. The format is functional.
Sequence of Cytochrome P450 2C19 (P33261 whole entry): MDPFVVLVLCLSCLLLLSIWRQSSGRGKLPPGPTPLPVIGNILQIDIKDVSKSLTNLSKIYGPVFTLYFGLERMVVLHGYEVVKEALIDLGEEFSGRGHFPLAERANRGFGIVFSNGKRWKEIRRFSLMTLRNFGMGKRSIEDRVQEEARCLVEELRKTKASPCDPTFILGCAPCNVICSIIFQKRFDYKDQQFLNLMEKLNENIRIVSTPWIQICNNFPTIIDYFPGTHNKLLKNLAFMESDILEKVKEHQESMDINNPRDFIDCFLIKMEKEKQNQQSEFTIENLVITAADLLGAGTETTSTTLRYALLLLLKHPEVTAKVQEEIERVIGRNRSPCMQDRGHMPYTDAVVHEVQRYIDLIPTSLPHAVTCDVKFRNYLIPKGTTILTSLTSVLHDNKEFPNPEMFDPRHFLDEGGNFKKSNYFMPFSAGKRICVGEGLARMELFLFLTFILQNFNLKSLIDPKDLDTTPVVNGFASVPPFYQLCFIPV
The subject of data set [4] is Streptococcus sp. 'group A'. Briefly: growth inhibition of control SK(-) GAS strain, dose response, counter-screen for streptokinase expression inhibitor project, luminescence, kanamycin, BacTiterGlo, confirmation (AID 1900). The format is functional, organism-based.
A further data set has as its system Streptococcus. As to the kind of experiment: Group A Streptococcus viability loss, dose response, counter-screen for streptokinase expression inhibitor project, luminescence, BacTiterGlo (AID 1915).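 Note: potency for reduction of bacterial viability or growth.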 The format is functional, organism-based.

Consider `CN/C(=N/CCSCc1nc[nH]c1C)NC#N` [CIMETIDINE], for which the AC50 at Cytochrome P450 1A2 is 50.1 µM (inconclusive).
With `CCCOc1ccc(N2C(=O)CC(SC(=N)N3N=C(c4ccccc4)CC3c3ccccc3)C2=O)cc1` (stereo not given), the EC50 is 2.05 µM (active) in data set [1] and > 60 µM (not active) in data set [2].
As to `CSc1nc2ccc(NS(=O)(=O)c3ccc([N+](=O)[O-])cc3)cc2s1`, the EC50 in data set [3] is given as > 195 µM (not active).
With `CC(C)Oc1ccc(C(=O)O)cc1`, the EC50 in data set [3] is 69.4 µM (active).
As to `Brc1ccc(-c2csc(N/N=C/c3cccnc3)n2)cc1`, the EC50 in data set [1] was 1.44 µM (active); in data set [2], > 60 µM (not active).
Take `c1cc2c(cc1C1CCCN1)OCCCO2` (stereo not given): the EC50 in data set [3] is given as > 195 µM (not active).
Take `O=C(c1ccc(Cn2c(=S)[nH]c3ccc(N4CCOCC4)cc3c2=O)cc1)N1CCN(c2ccc(F)cc2)CC1`: the EC50 in data set [1] was 0.583 µM (active); in data set [2], > 60 µM (not active).
Turning to `C/C(=N\OC(=O)c1ccc(F)cc1)c1nccs1`, the AC50 at Cytochrome P450 1A2 was 28.2 µM (inconclusive).
In the case of `CCCC(C)n1nc(O)c2c1NC(=O)CSC2c1ccc(OC)c(OC)c1` (stereo not given), the EC50 in data set [3] is recorded as > 195 µM (not active).
For `Cc1c(C(=O)NC(=S)NCc2cccnc2)oc2ccccc12`, the EC50 in data set [1] is 1.93 µM (active); in data set [2], > 60 µM (inconclusive).
For `Cc1ccc(-c2ccc(CCC(=O)O)n2CC2CCCO2)cc1` (stereo not given), on Cytochrome P450 2C19 (read-out: AC50), the AC50 is 14.1 µM (inconclusive).
With `C#C[C@@]1(O)CC[C@@H]2[C@@H]3CCC4=CC(=O)CC[C@@]4(C)[C@H]3CC[C@]21C`, the AC50 on Cytochrome P450 2C19 (read-out: AC50) was 0.501 µM (inconclusive).
Turning to `O=C(Nc1ccccc1)N1CCSc2cc(Cl)ccc21`, the half-maximal activity concentration (AC50) on Cytochrome P450 1A2 was 3.55 µM (inconclusive).
For `COC(=O)c1ccc(OC)c(CN2CCCN(Cc3cc(C)ccc3C)S2(=O)=O)c1`, the EC50 was 1.11 µM (active) in data set [1] and > 60 µM (not active) in data set [2].
As to `COc1cccc(-c2cc(NCc3cccs3)ncn2)c1`, the AC50 at Cytochrome P450 2C19 (read-out: AC50) is 25.1 µM (inconclusive).
For `COC(=O)c1ccc(/C=C/c2ccc3cccc(OC(C)=O)c3n2)cc1`, the results for the EC50 (in data set [4]; in the data set on Streptococcus) were 2.08 µM (active) and 8.49 µM (active), respectively.
Turning to `Cc1c(Cl)ccc2c(C(=O)Nc3cc(C(C)(C)C)on3)cc(-c3ccccn3)nc12`, the EC50 is 1.95 µM (active) in data set [1] and > 60 µM (not active) in data set [2].
Take `CCN(CC)CCCNC(=O)c1oc2ccc(S(=O)(=O)N3CC(C)CC(C)C3)cc2c1C` (stereo not given): the EC50 in data set [1] is 0.422 µM (active); in data set [2], > 30 µM (not active).
On to `CCN(Cc1ccncc1)C(=O)c1cc(COc2ccc(C)c(C)c2)on1`, for which the EC50 in data set [1] is 1.07 µM (active); in data set [2] it was > 60 µM (not active).
For `COC(=O)C1(C)C=C2C(=C(C)C(=O)C2C)CN1` (stereo not given), the AC50 on Cytochrome P450 1A2 was 31.6 µM (inconclusive).
As to `COc1ccc(CN(Cc2cccnc2)S(=O)(=O)c2ccc(-n3cnnn3)c(C)c2)cc1OC`, the EC50 is 2.19 µM (active) in data set [1] and > 30 µM (not active) in data set [2].
For the compound `CCOC(=O)N1CCN(C(=O)c2ccc3c(c2)NC(=O)/C(=C/c2ccccc2)S3)CC1`, the EC50 was 1.48 µM (active) in data set [4] and 4.42 µM (active) in the data set with Streptococcus.
As to `Fc1ccc(Cn2c(SCc3ccc(F)c(F)c3)nnc2C(F)(F)F)cc1`, the AC50 on Cytochrome P450 1A2 is 17.8 µM (inconclusive).
`Cc1ccc(SCCNC(=O)c2ccc(C)c(S(=O)(=O)Nc3ccccc3C)c2)cc1`: on Cytochrome P450 1A2, the AC50 was 14.1 µM (inconclusive).
As to `O=C(c1cc(Cl)ccc1Cl)N1CCOCC1`, the EC50 in data set [3] was > 195 µM (not active).
Take `C/C(=N/NC(N)=S)c1ccc(Br)s1`: the EC50 in data set [1] is 2.07 µM (active); in data set [2], > 60 µM (not active).
With `c1ccc(CCNc2nc(-c3ccncc3)cs2)cc1`, the EC50 in data set [1] was 1.8 µM (active); in data set [2], > 60 µM (not active).
Regarding `Cc1ccc(S(=O)(=O)N(CC(=O)N2CCc3ccccc3C2)c2ccc(Cl)c(Cl)c2)cc1`, the EC50 in data set [3] is recorded as > 195 µM (not active).
As to `Brc1ccc2ncnc(Nc3cccc4ccccc34)c2c1`, at Cytochrome P450 2C19 (read-out: AC50), the AC50 was 2.82 µM (inconclusive).
As to `CCc1ccccc1NC(=O)NC1CC2CCC(C1)N2Cc1cccs1` (stereo not given), the AC50 on Cytochrome P450 2C19 (read-out: AC50) was 17.8 µM (inconclusive).
For `COc1ccc(NC(=S)N2CCN(C/C=C/c3ccccc3)CC2)cc1OC`, the AC50 at Cytochrome P450 2C19 (read-out: AC50) was 15.8 µM (inconclusive); at Cytochrome P450 1A2, 28.2 µM (inconclusive).
Take `O=c1c(-c2ccc(F)cc2)nc2cnc(Nc3ccccc3)nc2n1Cc1cccs1`: the AC50 on Cytochrome P450 1A2 is 2 µM (inconclusive).
For `Cc1ccc(C(=O)C[n+]2cccc3cc(C)ccc32)cc1`, the EC50 was 11.2 µM (active) in data set [1] and > 60 µM (inconclusive) in data set [2].
As for `O=C(O)c1cccnc1SCC(=O)N1CCCCCC1`, on Cytochrome P450 2C19, the AC50 result is on record as “inconclusive”.
`CCN(c1ccccc1)S(=O)(=O)c1ccc(Cl)c(NC(=O)CN2CCCCCC2)c1`: the EC50 in data set [1] was 1.04 µM (active); in data set [2], > 60 µM (not active).
Consider `COc1cc(NC(=O)COC(=O)/C=C/c2c(C)nn(-c3ccc(F)cc3)c2Cl)cc(OC)c1`, for which the EC50 is 0.691 µM (active) in data set [1] and > 60 µM (not active) in data set [2].
Take `COc1ccc(C(=O)NC(=S)N2CCNC(=O)C2CC(=O)OC(C)C)cc1` (stereo not given): the EC50 in data set [3] is reported as > 195 µM (not active).
Consider `COc1cccc(Cn2c(=O)c(-c3ccc(F)cc3)nc3cnc(N4CCOCC4)nc32)c1`, for which the AC50 result on Cytochrome P450 2C19 is listed as “inconclusive”.
As to `Fc1ccccc1N1CCN(Cc2cc(-c3ccccc3)on2)CC1`, the EC50 in data set [3] was > 195 µM (not active).
Consider `Cc1ccc(C(=O)NNC(=O)C2CCCN(c3ncccn3)C2)cc1` (stereo not given), for which the AC50 on Cytochrome P450 2C19 (read-out: AC50) is 39.8 µM (inconclusive).
As for `CCOC(=O)c1cnc2ccccc2c1Nc1ccc2c(c1)OCCO2`, the EC50 in data set [3] is 6 µM (active).
For `O=[N+]([O-])c1nn(-c2ccc3c(c2)OCCO3)[n+]([O-])c1NC1CCN(Cc2ccccc2)CC1`, the EC50 in data set [1] was 0.163 µM (active); in data set [2] it was > 60 µM (not active).
Consider `CNC(=O)/C(C#N)=C/c1ccc(-c2ccc(OC)cc2[N+](=O)[O-])o1`, for which the EC50 in data set [3] was > 195 µM (not active).
As for `C/C(Cn1cnc([N+](=O)[O-])n1)=N\NC(=O)c1cccc(F)c1`, the EC50 is 1.39 µM (active) in data set [1] and > 60 µM (not active) in data set [2].
On to `CC1CN(C(=O)COc2ncnc3ccccc23)CC(C)O1` (stereo not given), for which the AC50 on Cytochrome P450 2C19 (read-out: AC50) was 39.8 µM (inconclusive).
On the same count and under the same terms, then `O=c1c(-c2ccccc2)nc2cncnc2n1C1CC1`, with 3.16 µM (inconclusive).
On to `CCC1CCc2sc(C(=O)NCC(c3ccc(OC)cc3)N3CCCC3)cc2C1` (stereo not given), for which the EC50 in data set [1] was 1.83 µM (active); in data set [2], > 60 µM (not active).
On to `Cn1cc(Cl)c(-c2nnc(S)n2-c2ccc(F)cc2)n1`, for which the EC50 in data set [3] was > 195 µM (not active).
`Cc1ccc2oc(-c3cccc(NC(=S)NC(=O)/C=C/c4ccco4)c3)nc2c1`: the AC50 on Cytochrome P450 1A2 is 3.55 µM (inconclusive).
Regarding `O=C(CCCOc1ccccc1)Nc1nccs1`, in data set [3], the EC50 is given as > 195 µM (not active).
Consider `CN1CCC(OC(=O)c2ccccc2)CC1`, for which the results for the EC50 in data set [1] and in data set [2] were 0.263 µM (active) and 58.6 µM (active), respectively.
Regarding `CCCCc1ccc(NC(S)=NCc2cccc(OC)c2)cc1`, the EC50 was 3.51 µM (active) in data set [1] and > 60 µM (not active) in data set [2].
Turning to `SC(COCc1ccccc1)CN1CCN(Cc2ccc3c(c2)OCO3)CC1` (stereo not given), the EC50 in data set [1] is 2.1 µM (active); in data set [2], > 60 µM (not active).
On to `C[C@@H](C(=O)OC1C[C@H]2CC[C@@H](C1)N2C)c1ccc(Br)cc1` (stereo not given in full), for which, at Cytochrome P450 1A2, the AC50 is 39.8 µM (inconclusive).
For `Cc1cccc(-n2c(=O)c3c(n4cnnc24)-c2ccccc2CC32CCCCC2)c1`, on Cytochrome P450 1A2, the AC50 was 22.4 µM (inconclusive).
For the compound `Cc1ccc(C(C(=O)NCc2ccco2)N(C(=O)CNC(=O)c2cccs2)c2ccc(C)cc2)cc1` (stereo not given), the AC50 at Cytochrome P450 2C19 (read-out: AC50) is 2.51 µM (inconclusive).
For `O=C(NC(NC(=S)Nc1cc(Cl)ccc1Cl)C(Cl)(Cl)Cl)c1ccco1` (stereo not given), the AC50 at Cytochrome P450 1A2 was 12.6 µM (inconclusive).

The term AC50 denotes the midpoint of the concentration-response curve, whichever way the signal moves. A word on the EC50: it is the concentration that produces a half-maximal response.
